Reference: patent US12233073B2, “Skin care formulations and skin cancer treatment” (Regents of the University of Minnesota, priority 2017, dated 2025)
Read-outs that look alike come from different tables or passages of the source.

Tests used:
[1] = test system: SSL-induced skin tumors in SKH-1 hairless mice
Method: The effectiveness of different candidate compounds in preventing sUV-induced cancer was evaluated. SKH-1 hairless mice (Charles River, Burlington, Massachusetts) were treated with formulations including one or more candidate compounds and exposed to SSL (solar simulated light). Female mice aged 5-6 weeks at the beginning of the study were used. The mice were exposed to SSL three times a week for 15 weeks from the beginning of the study. At week 1, the SSL dose included 37 kJ/m^2 UVA and 1.8 kJ/m^2 UVB three times per week. […] At week 6, the dose included 60 kJ/m^2 UVA and 2.9 kJ/m^2 UVB and this dose was maintained until week 15 at which time SSL exposure was stopped. Each mouse received a topical application (on the dorsal skin surface posterior to the base of the neck and anterior to the base of the tail) of one or more candidate compounds in a base cream one hour before SSL exposure. 15 weeks onwards, the mice were no longer exposed to SSL but the topical application of cream with sunscreen compounds was continued until 30 weeks. Control mice received topical application of cream with sunscreen compounds but no SSL.
Tumors were counted by sight. The dimensions of each tumor were measured using a digital caliper. Tumor volume (mm^3) was determined as (length×width^2)×0.52, where the length and width were measured in mm. […] Average or total tumor volumes were compared between vehicle (cream)-treated mice exposed to SSL and compound in cream-treated mice exposed to SSL.

[2] = test system: skin of SKH-1 hairless mice; assay: H&E staining of skin of mice treated with anti-sUV agents; type: in vivo, mouse; details: solar UV-exposed groups G13-G24
Text: FIG. 40 is a photograph comparing H&E (hematoxylin and eosin) stained tissue sample of mice exposed to solar ultraviolet and treated with anti-sUV agents and mice unexposed to solar ultraviolet. H&E staining can show skin damage (see TABLE 5 for group identification). […] None of the compounds in the absence of solar UV caused any damage and none had any adverse effect on skin thickness. G11 and G12 are the positive controls, being groups treated with solar UV without or with vehicle (cream).

[3] = test system: nuclear factor kappa B (NF-κB) pathway; assay: Cell-based assay of the nuclear factor kappa B (NF-κB) pathway; details: for inhibition at 10 µg/mL / inhibition at 50 µg/mL / inhibition at 100 µg/mL: read-out: % inhibition of NF-κB
Method: The effect of adding anti-aging and/or anti-wrinkling compounds to the skin care formulation of EXAMPLE 18 on nuclear factor kappa B (NF-κB) mediated-inflammation was evaluated.
A cell-based assay was performed to determine the effective of each of these compounds. The assay involved the effect of each compound on the nuclear factor kappa B (NF-κB) pathway. The inhibition of NF-κB is indicative of a protective effect against aging and wrinkling.

elastin = assay: Induction of elastin; type: cell-based; details: for fold induction at 10 µg/mL: final dose 10 μg/ml; for fold induction at 50 µg/mL: final dose 50 μg/ml; for fold induction at 100 µg/mL: final dose 100 μg/ml
Method: (§1) Higher elastin and collagen activity is indicative of anti-wrinkling or anti-aging effects. Activation of the antioxidant response element (ARE) pathway was also evaluated. The NF-E2-related factor (Nrf2) is a critical transcription factor in oxidative stress signaling. Nrf2 binds to the ARE and serves as a master regulator in cellular defense pathways. The ARE pathway mediates the transcriptional induction of a battery of genes that help to protect the cells against oxidative damage. Activation of the ARE promoter leads to more endogenous antioxidants and cell detoxification.

collagen 1A = assay: Induction of collagen 1A; type: cell-based; details: for fold induction at 10 µg/mL: final dose 10 μg/ml; for fold induction at 50 µg/mL: final dose 50 μg/ml; for fold induction at 100 µg/mL: final dose 100 μg/ml; for Rating (Collagen 1A): second rating in cell
Method: as §1

[4] = test system: antioxidant response element (ARE) pathway; assay: Activation of the antioxidant response element (ARE) pathway; type: cell-based; details: for fold induction at 10 µg/mL: final dose 10 μg/ml; for fold induction at 50 µg/mL: final dose 50 μg/ml; for fold induction at 100 µg/mL: final dose 100 μg/ml; for Rating (ARE): third rating in cell
Method: as §1

UV-induced ROS = assay: Inhibition of the production of UV-induced reactive oxygen species (ROS); type: cell-based; details: final dose 10 μg/ml; read-out: % inhibition of UV-induced ROS
Method: The effect of the compounds of EXAMPLE 20 on inhibition of the production of reactive oxygen species (ROS), which can damage skin cells, was evaluated.

Ki-67 = Ki-67 immunohistological staining of skin of mice treated with anti-sUV agents; type: in vivo, mouse; details: solar UV-exposed groups
Text: FIG. 41 is a photograph comparing Ki-67 immunohistological-stained tissue samples of mice exposed to solar ultraviolet and treated with anti-sUV agents and mice unexposed to solar ultraviolet.

[5] = SSL-exposed, compound in cream, percent per TABLE 5
[6] = SSL-exposed, compound in cream, percent per TABLE 5, 15 mice
[7] = female, SKH-1 hairless, mouse, in vivo, 30 weeks
[8] = no SSL exposure, compound in cream, percent per TABLE 5

Molecule | % Effective Protection (% reduction in tumor volume vs SSL with cream only) [1, 5] | % Mice with tumor [1, 6] | % Mortality [1, 6] | Average volume of tumors [1, 6] | Avg. no. of tumors [1, 6] | Number of dead mice [1, 6] | Total no. of tumors [1, 6] | Total volume of tumors [1, 6] | % Mice with tumor [1, 7] | % Mortality/Number of dead mice [1, 8] | Total/Average volume of tumors [1, 8] | Total/Avg. no. of tumors [1, 8] | H&E staining: epidermal thickening and skin damage [2] | further results
CCCCC(CC)COC(=O)c1ccccc1O (stereo not drawn) [Octisalate] | 70.1% | 100% | 66.7% | 50.6 mm^3 | 2.6 | 10 | 39 | 758.4 mm^3 | 0% | 0 | 0 | 0 | epidermal thickening and skin damage | –
CCCCC(CC)COC(=O)C=Cc1ccc(OC)cc1 (stereo not drawn) [Octinoxate] | 93.9% | 80% | 13.3% | 10.4 mm^3 | 1.4 | 2 | 21 | 156.02 mm^3 | 0% | 0 | 0 | 0 | epidermal thickening but less damage | –
CCCCC(CC)COC(=O)C(C#N)=C(c1ccccc1)c1ccccc1 (stereo not drawn) [Octocrylene] | 90.3% | 66.7% | 0/0% | 16.5 mm^3 | 1.7 | 0/0 | 25 | 246.7 mm^3 | 0% | 0 | 0 | 0 | epidermal thickening and skin damage | –
Titanium dioxide | 89.2% | 100% | 13.3% | 18.4 mm^3 | 2.6 | 2 | 39 | 275.6 mm^3 | – | 0 | 0 | 0 | epidermal thickening and skin damage | % Mice with tumor ([1]; mouse, in vivo): 0%
COc1ccc(C(=O)c2ccccc2)c(O)c1 [Oxybenzone] | 91.2% | 86.7% | 6.7% | 14.3 mm^3 | 2.3 | 1 | 35 | 213.7 mm^3 | 0% | 0 | 0 | 0 | epidermal thickening but less damage | –
COc1cc(-c2oc3cc(O)cc(O)c3c(=O)c2O)ccc1O [HI-10, isorhamnetin] | – | – | – | – | – | – | – | – | – | – | – | – | – | inhibition at 10 µg/mL [3]: 45%; inhibition at 50 µg/mL [3]: 52%; inhibition at 100 µg/mL [3]: 43%; fold induction at 10 µg/mL (elastin): 1.7; fold induction at 50 µg/mL (elastin): 1.8; fold induction at 100 µg/mL (elastin): 4; fold induction at 10 µg/mL (collagen 1A): 1.4; fold induction at 50 µg/mL (collagen 1A): < 1.3; fold induction at 100 µg/mL (collagen 1A): < 1.3; Rating (Collagen 1A) (collagen 1A): ** (medium activity (31-55%)); fold induction at 10 µg/mL [4]: 2; fold induction at 50 µg/mL [4]: < 1.3; fold induction at 100 µg/mL [4]: < 1.3; Rating (ARE) [4]: **** (very high activity (>76%)); inhibition at 10 µg/mL (UV-induced ROS): ~50%
CC1CC(OC(=O)c2ccccc2O)CC(C)(C)C1 (stereo not drawn) [Homosalate] | 83.6% | 80% | 6.7% | 27.7 mm^3 | 2.6 | 1 | 39 | 415.7 mm^3 | 0% | 0 | 0 | 0 | intense damage | Ki-67 staining: abnormal cell proliferation (Ki-67): extensive abnormal proliferation
[O]=[Zn] [Zinc oxide] | – | 6.7% | 0/0% | 0.8 mm^3 | 0.13 | 0/0 | 2 | 11.2 mm^3 | – | 0 | 0 | 0 | most protected | % Mice with tumor ([1]; no SSL exposure, compound in cream, percent per TABLE 5, 30 weeks): 0%; Ki-67 staining: abnormal cell proliferation (Ki-67): least amount of abnormal proliferation
O=c1c(O)c(-c2ccc(O)cc2)oc2cc(O)ccc12 [HI-7, 3,7,4′-trihydroxyflavone] | – | – | – | – | – | – | – | – | – | – | – | – | – | inhibition at 10 µg/mL ([3]; final dose 10 μg/ml): 9%; inhibition at 50 µg/mL ([3]; final dose 50 μg/ml): 52%; inhibition at 100 µg/mL ([3]; final dose 100 μg/ml): 66%; Rating (inhibition of NF-κB) ([3]; one rating per compound): none; fold induction at 10 µg/mL (elastin): 3; fold induction at 50 µg/mL (elastin): 2; fold induction at 100 µg/mL (elastin): < 1.3; fold induction at 10 µg/mL (collagen 1A): 3; fold induction at 50 µg/mL (collagen 1A): < 1.3; fold induction at 100 µg/mL (collagen 1A): < 1.3; Rating (Collagen 1A) (collagen 1A): ****, ****, **** (very high activity (>76%)); fold induction at 10 µg/mL [4]: 2; fold induction at 50 µg/mL [4]: 1.5; fold induction at 100 µg/mL [4]: < 1.3; Rating (ARE) [4]: ****, ****, **** (very high activity (>76%)); inhibition at 10 µg/mL (UV-induced ROS): ~50%
